The numbers were not newly measured in patent publication US20260237528A1, “DRUG COMBINATIONS SCREENING” (Hoffmann-La Roche Inc., priority 2023, published 2026), which cites them from elsewhere.

This data set relates to tumour growth. As to conditions: tested alone.

For `CN(C)CCCN1c2ccccc2Sc2ccc(Cl)cc21` [chlorpromazine], the anti-tumour activity entry was “Neither of these drugs showed any anti-tumour activity when tested alone”.

For the compound `N=C(N)c1ccc(OCCCCCOc2ccc(C(=N)N)cc2)cc1` [pentamidine], the anti-tumour activity entry is recorded as “Neither of these drugs showed any anti-tumour activity when tested alone”.
